From ChEMBL document CHEMBL3880395, “Novel compounds and methods of use thereof” (2003)
The source made the active and inactive calls. The calls are words filed in the database; no cut-off is given here.

Experiments:
[1] = species on record: Rattus norvegicus; test: Antiangiogenic activity in Sprague-Dawley rat thoracic aortic rings assessed as inhibition of capillary like tube formation at 0.3 ug/ml for 5 days by MTT/MTS assay; type: functional; settings: Thoracic aorta
[2] = Anticancer activity against mouse P388 cells implanted in DBA/2J mouse assessed as increase in life span at 200 mg/kg, po administered daily for 4 days measured twice daily during compound dosing; type: functional; settings: 96 h
[3] = test system: P388; test: Anticancer activity against mouse P388 cells implanted in po dosed DBA/2J mouse assessed as increase in life span administered daily for 4 days measured twice daily during compound dosing; type: functional, organism-based
[4] = Toxicity in DBA/2J mouse implanted with mouse P388 cells assessed as body weight loss at 5 to 400 mg/kg, po administered daily for 4 days measured twice daily during compound dosing; type: organism-based; settings: in vivo, 96 h
[5] = Toxicity in athymic nude mouse xenografted in human SW480 cells xenografted assessed as body weight loss at 200 mg/kg, administered via oral gavage daily for 6 weeks measured twice per every week for 70 days; type: organism-based; settings: in vivo, 1680 h
[6] = Cytotoxicity against human HONE1 cells assessed as reduction in cell growth after 72 hrs by MTS assay; type: functional, cell-based; settings: HONE1, 72 h
[7] = Toxicity in DBA/2J mouse implanted with mouse P388 cells assessed as body weight loss at 25 to 400 mg/kg, po administered daily for 4 days measured twice daily during compound dosing; type: organism-based; settings: in vivo, 96 h
[8] = species on record: Rattus norvegicus; test: Antiangiogenic activity in Sprague-Dawley rat thoracic aortic rings assessed as inhibition of capillary like tube formation at 1 ug/ml for 5 days by MTT/MTS assay; type: functional; settings: Thoracic aorta

Compound | inhibition [1] | also measured
Cc1cc(NC(=O)C(=O)c2cn(Cc3ccco3)c3ccccc23)sn1 | Active | –
N#Cc1ccc(Cn2cc(C(=O)C(=O)Nc3ccc(I)cc3)c3ccccc32)cc1 | Active | –
Cc1cc(NC(=O)C(=O)c2cn(Cc3ccno3)c3ccccc23)sn1 | Active | –
Cc1cc(Cn2cc(C(=O)C(=O)Nc3cc(C)ns3)c3ccccc32)on1 | Active | ILS at 200 mg/kg [2]: 100%; ILS [3]: Dose-dependent effect; Activity [4]: Non-Toxic; Activity [5]: Non-Toxic; IC50 [6]: 3 to 4 nM
Cc1cc(NC(=O)C(=O)c2cn(Cc3ccc(C#N)cc3)c3ccccc23)sn1 | Active | ILS [3]: Dose-dependent effect; Activity [7]: Non-Toxic
Cc1cc(Cn2cc(C(=O)C(=O)Nc3ccc4ncccc4c3)c3ccccc32)on1 | Active | –
Cc1cc(NC(=O)C(=O)c2cn(Cc3ccsc3)c3ccccc23)sn1 | Active | –
CCc1cc(Cn2cc(C(=O)C(=O)Nc3cc(C)ns3)c3ccccc32)on1 | Active | –
O=C(Nc1ccncc1)C(=O)c1cn(Cc2ccc(Cl)cc2)c2ccccc12 | – | inhibition [8]: Active
O=C(Nc1ccc2ncccc2c1)C(=O)c1cn(Cc2cscn2)c2ccccc12 | Active | –
COc1ccc(NC(=O)C(=O)c2cn(Cc3ccccc3C#N)c3ccccc23)cc1 | Active | –
O=C(Nc1ccc2ncccc2c1)C(=O)c1cn(Cc2ccsc2)c2ccccc12 | – | ILS [3]: Dose-dependent effect; Activity [7]: Non-Toxic
N#Cc1ccc(Cn2cc(C(=O)C(=O)Nc3ccc4ncccc4c3)c3ccccc32)cc1 | Active | –
O=C(Nc1ccc2ncccc2c1)C(=O)c1cn(Cc2ccco2)c2ccccc12 | Active | –
Cc1cc(NC(=O)C(=O)c2cn(Cc3cccs3)c3ccccc23)sn1 | – | inhibition [8]: Active
Cc1cc(Cn2cc(C(=O)C(=O)Nc3ccc(Br)cc3)c3ccccc32)on1 | Active | –
Cc1cc(NC(=O)C(=O)c2cn(Cc3cc(C(C)C)no3)c3ccccc23)sn1 | Active | –
